# Measurements taken from paper PMC4833520 (Bioorganic & medicinal chemistry, 2016).
# Legend:
# σ1 receptor = σ1 receptor (Cavia porcellus, UniProt Q60492); test: PDSP radioligand binding, σ1 receptor
# [1] = target: human dopamine D1 receptor (Homo sapiens, UniProt P21728); test: PDSP radioligand binding, dopamine D1 receptor; conditions: ratio of Ki values
# human dopamine D1 receptor, sequence (P21728 whole entry): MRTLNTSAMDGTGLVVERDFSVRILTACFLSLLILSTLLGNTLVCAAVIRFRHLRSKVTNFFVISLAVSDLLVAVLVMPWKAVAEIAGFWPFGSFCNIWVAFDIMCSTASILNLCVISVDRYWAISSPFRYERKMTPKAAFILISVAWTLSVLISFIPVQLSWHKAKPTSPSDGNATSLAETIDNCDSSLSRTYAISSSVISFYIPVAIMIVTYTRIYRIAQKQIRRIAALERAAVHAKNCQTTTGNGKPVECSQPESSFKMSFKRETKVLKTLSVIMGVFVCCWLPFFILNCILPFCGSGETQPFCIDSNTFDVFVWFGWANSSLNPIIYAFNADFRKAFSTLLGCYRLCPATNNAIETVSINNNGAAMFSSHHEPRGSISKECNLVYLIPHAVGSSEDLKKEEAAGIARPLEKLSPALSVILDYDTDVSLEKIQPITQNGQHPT
# σ1 receptor, sequence (Q60492 whole entry): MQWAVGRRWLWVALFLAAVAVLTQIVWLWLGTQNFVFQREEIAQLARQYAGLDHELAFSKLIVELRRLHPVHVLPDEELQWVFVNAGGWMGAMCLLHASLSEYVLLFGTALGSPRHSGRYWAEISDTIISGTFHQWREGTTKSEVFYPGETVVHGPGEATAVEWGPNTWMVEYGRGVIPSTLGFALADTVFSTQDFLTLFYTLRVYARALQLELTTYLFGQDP
compound,measurement,setting,value
"CCCCCCOc1ccc2c(c1OC)CN1CCc3cc(OC)c(O)cc3C1C2 (centres unmarked) [Compound 15, 10-(Hexyloxy)-3,9-dimethoxy-5,8,13,13a-tetrahydro-6H-isoquinolino[3,2-a]isoquinolin-2-ol]",selectivity for σ1 versus σ2 receptors,σ1 receptor,approximately 3 fold
"COc1cc2c(cc1O)C1Cc3ccc(OCCCO)c(OC)c3CN1CC2 (centres unmarked) [Compound 16, 10-(3-Hydroxypropoxy)-3,9-dimethoxy-5,8,13,13a-tetrahydro-6H-isoquinolino[3,2-a]isoquinolin-2-ol]",Selectivity D3/D1,[1],16
